Laboratory results published in ChEMBL document CHEMBL1201862, “PubChem BioAssay data set” (2004).
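Interpolation was linear, between the two tested concentrations surrounding the appropriate level; five concentrations were tested over 48 hours in 96-well plates. At the GI50, growth is halved.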 Activity calls are given as the source filed them. Cut-off read from the data, not from the text of the source: active = GI50 up to about 1.1 µM and inactive = higher.

Key:
Assay in all cases: inhibition of tumour cell growth, NCI panel, 48 h
A549 = tested on: A549
CCRF-CEM = tested on: CCRF-CEM
HCC 2998 = tested on: HCC 2998
HCT-116 = tested on: HCT-116
HT-29 = tested on: HT-29
K562 = tested on: K562
MCF7 = tested on: MCF7
MDA-MB-231 = tested on: MDA-MB-231
MDA-MB-435 = tested on: MDA-MB-435
MDA-N = tested on: MDA-N
MOLT-4 = tested on: MOLT-4
RPMI-8226 = tested on: RPMI-8226
SK-MEL-28 = tested on: SK-MEL-28
SK-MEL-5 = tested on: SK-MEL-5
SK-OV-3 = tested on: SK-OV-3
SN12C = tested on: SN12C
U-251 = tested on: U-251
CAKI-1 = tested on: CAKI-1
NCI-H226 = tested on: NCI-H226
T47D = tested on: T47D

Measured: GI50

O=C(O)C1CCCCC1C(=O)Nn1cnnc1 (stereo not given)
inactive: A549 > 100 µM | CCRF-CEM > 100 µM | HCC 2998 > 100 µM | HCT-116 > 100 µM | HT-29 > 100 µM | K562 > 100 µM | MCF7 > 100 µM | MDA-MB-231 > 100 µM | MDA-MB-435 > 100 µM | MDA-N > 100 µM | MOLT-4 > 100 µM | RPMI-8226 > 100 µM | SK-MEL-28 > 100 µM | SK-MEL-5 > 100 µM | SK-OV-3 > 100 µM | SN12C > 100 µM | U-251 > 100 µM

CC(C)(C)OC(=O)NC(Cc1ccc(OCc2ccccc2)cn1)C(=O)O (stereo not given)
inactive: A549 > 100 µM | CAKI-1 > 100 µM | CCRF-CEM > 10 µM | HCC 2998 > 100 µM | HCT-116 > 100 µM | HT-29 > 100 µM | K562 > 100 µM | MCF7 > 100 µM | MDA-MB-231 > 100 µM | MDA-MB-435 > 100 µM | MDA-N > 100 µM | NCI-H226 > 100 µM | RPMI-8226 > 100 µM | SK-MEL-28 > 100 µM | SK-MEL-5 > 100 µM | SN12C > 100 µM | U-251 > 100 µM

COc1cccc(-c2cc(C(=O)Nc3ccc(Cl)cc3)nc(N)n2)c1
inactive: A549 64.7 µM | CAKI-1 > 100 µM | CCRF-CEM > 100 µM | HCC 2998 87.7 µM | HCT-116 42.9 µM | HT-29 45.5 µM | K562 40.5 µM | MOLT-4 38.7 µM | NCI-H226 > 100 µM | RPMI-8226 53.1 µM | SK-MEL-28 86.9 µM | SK-MEL-5 55.6 µM | SK-OV-3 61 µM | SN12C 57.7 µM | U-251 60.8 µM

O=C(c1ccc(Cl)cc1)C(O)c1ccc(Cl)cc1 (stereo not given)
inactive: A549 59.7 µM | CAKI-1 > 100 µM | CCRF-CEM > 100 µM | HCC 2998 > 100 µM | HCT-116 > 100 µM | HT-29 > 100 µM | K562 30.8 µM | MCF7 75.7 µM | MDA-MB-231 > 100 µM | MDA-MB-435 > 100 µM | MOLT-4 24.8 µM | NCI-H226 > 100 µM | RPMI-8226 60.4 µM | SK-MEL-28 > 100 µM | SK-MEL-5 30.9 µM | SN12C > 100 µM | U-251 > 100 µM

N#C/C(=C\c1cc(Br)c(O)c(Br)c1)c1cccnc1
inactive: A549 34.2 µM | CAKI-1 35.7 µM | CCRF-CEM 18.2 µM | HCC 2998 36.1 µM | HCT-116 > 100 µM | HT-29 34.9 µM | K562 23.6 µM | MCF7 33 µM | MDA-N > 100 µM | MOLT-4 23.9 µM | NCI-H226 21.5 µM | RPMI-8226 21.6 µM | SK-MEL-28 27.6 µM | SK-MEL-5 > 10 µM | SK-OV-3 42.2 µM | SN12C 34.7 µM | U-251 16.7 µM

CCOC(=O)C(=Cc1ccc(C(=O)OC)cc1)C(=O)OCC
inactive: A549 3.37 µM | CAKI-1 1.67 µM | CCRF-CEM 1.58 µM | HCC 2998 4.06 µM | HCT-116 3.33 µM | HT-29 3.21 µM | K562 2.32 µM | MOLT-4 2.61 µM | NCI-H226 2.08 µM | RPMI-8226 1.37 µM | SK-MEL-28 1.71 µM | SK-MEL-5 2.05 µM | SK-OV-3 13.6 µM | SN12C 2.25 µM | U-251 1.66 µM

Nc1nc(Cl)c2ncn(Cc3ccccc3CCl)c2n1
inactive: A549 22 µM | CAKI-1 6.65 µM | CCRF-CEM 17.7 µM | HCC 2998 2.99 µM | HCT-116 3.95 µM | HT-29 3.85 µM | K562 4.43 µM | MCF7 5.97 µM | MDA-MB-231 2.96 µM | MDA-MB-435 6.07 µM | MOLT-4 5.19 µM | NCI-H226 2.64 µM | RPMI-8226 11.3 µM | SK-MEL-28 4.81 µM | SK-MEL-5 8.55 µM | SK-OV-3 15.3 µM | SN12C 2.74 µM | T47D 24.2 µM | U-251 3.46 µM

O=c1ccn2n1Cc1ccccc1C2
inactive: A549 > 100 µM | CAKI-1 > 100 µM | CCRF-CEM > 100 µM | HCC 2998 > 100 µM | HCT-116 > 100 µM | HT-29 > 100 µM | K562 > 100 µM | MDA-MB-231 > 100 µM | MDA-MB-435 > 100 µM | MOLT-4 > 100 µM | NCI-H226 > 100 µM | RPMI-8226 > 100 µM | SK-MEL-28 > 100 µM | SK-MEL-5 > 100 µM | SK-OV-3 > 100 µM | SN12C > 100 µM | T47D > 100 µM | U-251 > 100 µM
